Laboratory results as given in patent US7422733B2, “Linkable sialyl Lewis X analogs” (Bracco International B.V., priority 2000, dated 2008).

Columns and labels:
[1] = target: T1, E-selectin (Homo sapiens, UniProt P16581); experiment: binding of radiolabeled analog 3b to human aortic endothelial cells in vitro (E-selectin binding assay); design: endogenous in cells; host or cells: human aortic endothelial cells, stimulated with TNF-alpha or unstimulated
T1 sequence (P16581 22-610): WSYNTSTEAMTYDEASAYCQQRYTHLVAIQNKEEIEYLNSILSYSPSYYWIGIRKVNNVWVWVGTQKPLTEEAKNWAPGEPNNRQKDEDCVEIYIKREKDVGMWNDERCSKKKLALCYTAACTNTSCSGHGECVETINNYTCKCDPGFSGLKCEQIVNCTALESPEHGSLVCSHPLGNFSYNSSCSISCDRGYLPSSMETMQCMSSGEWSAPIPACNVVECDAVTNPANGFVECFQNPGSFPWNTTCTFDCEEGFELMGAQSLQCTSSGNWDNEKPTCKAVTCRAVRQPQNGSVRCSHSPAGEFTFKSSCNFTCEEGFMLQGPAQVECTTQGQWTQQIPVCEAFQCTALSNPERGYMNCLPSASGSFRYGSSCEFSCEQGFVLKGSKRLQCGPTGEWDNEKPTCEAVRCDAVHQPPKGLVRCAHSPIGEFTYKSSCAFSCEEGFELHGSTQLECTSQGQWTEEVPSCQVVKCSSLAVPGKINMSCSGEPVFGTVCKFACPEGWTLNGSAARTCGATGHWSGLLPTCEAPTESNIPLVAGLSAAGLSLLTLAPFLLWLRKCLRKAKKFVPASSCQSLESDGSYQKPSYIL
Procedure: We evaluated the ability of the radiolabeled acetamido-phenyl Sialyl Lewis^x analog 3b to bind to human aortic endothelial cells in vitro. […] S. A. DeFrees et al., J. Am. Chem. Soc., 117:66-79 (1995). […] The binding sites were specific to native Sialyl Lewis^x, since it was shown that cold unlabeled Sialyl Lewis^x (formula A) at a concentration of 10 mM displaced close to 50% of the bound counts at 0.2 mM concentration.

[2] = target: T1, E-selectin; conditions: in vitro, published value; cited from earlier work

behaviour in E-selectin binding assay compared to native Sialyl Lewis^x [1] | concentrations at which the analog bound significantly ([1]; activated human aortic endothelial cells, 14C-labeled analog) | increase in the extent of binding in TNF-α stimulated cells over unstimulated control cells ([1]; cells stimulated with TNF-α vs unstimulated control cells) | binding relative to published Kd of native Sialyl Lewis^x ([1]; compared with published value of 1-2 mM) | displacement of bound counts ([1]; cold unlabeled competitor at 10 mM, bound 3b counts at 0.2 mM) | SMILES | Kd [2]
superior to native Sialyl Lewis^x | 0.1-0.2 mM | two-fold increase | ten fold greater | – | CC(=O)N[C@H]1[C@H](Oc2ccc(N[14C](C)=O)cc2)O[C@H](CO)[C@@H](O[C@@H]2O[C@H](CO)[C@H](O)[C@H](O[C@]3(C(=O)O)C[C@H](O)[C@@H](NC(C)=O)[C@H]([C@H](O)[C@H](O)CO)O3)[C@H]2O)[C@@H]1O[C@@H]1O[C@@H](C)[C@@H](O)[C@@H](O)[C@@H]1O [compound 3b] | –
– | – | – | – | ~50% | CC(=O)NC1C(O)OC(CO)C(OC2OC(CO)C(O)C(OC3(C(=O)O)CC(O)C(NC(C)=O)C([C@H](O)[C@H](O)CO)O3)C2O)C1OC1OC(C)C(O)C(O)C1O (stereo partly drawn) [Sialyl Lewis^x, sialyl Lewis X] | 1000 to 2000 µM
